How the values were obtained:
hGlyR-α1 = target: T1, hGlyR-α1 (Homo sapiens, UniProt P23415); format: cell-based; conditions: for potentiation effect on the channel current (representative traces): 10 μM modulator, glycine EC5, Figure 5a; for potentiation up to the maximum tested concentration: up to 10 μM, glycine EC5
T1 sequence (P23415 29-457): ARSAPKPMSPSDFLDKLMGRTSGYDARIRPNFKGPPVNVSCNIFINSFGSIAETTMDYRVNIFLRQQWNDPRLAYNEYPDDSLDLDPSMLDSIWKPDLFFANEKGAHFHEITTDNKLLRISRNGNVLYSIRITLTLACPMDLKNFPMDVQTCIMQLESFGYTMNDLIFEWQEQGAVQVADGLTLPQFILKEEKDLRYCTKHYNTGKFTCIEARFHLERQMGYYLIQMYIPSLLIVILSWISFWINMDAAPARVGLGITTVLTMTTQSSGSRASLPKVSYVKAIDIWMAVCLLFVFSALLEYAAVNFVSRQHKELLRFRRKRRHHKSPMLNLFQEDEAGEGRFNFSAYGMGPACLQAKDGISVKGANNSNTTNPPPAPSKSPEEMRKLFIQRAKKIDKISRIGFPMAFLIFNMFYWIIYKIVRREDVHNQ

α7nAChR = conditions: previous finding; cited from earlier work

Structure (SMILES)	potentiation effect on the channel current (representative traces) (hGlyR-α1)	potentiation up to the maximum tested concentration (hGlyR-α1)	effect on α7nAChR function (α7nAChR)
Cc1nc2c([nH]1)-c1ccccc1N(C(=O)c1ccc(NC(=O)c3ccccc3-c3ccccc3)cc1)CC2 [Conivaptan]	no potentiation	did not show potentiation	
COc1cc(OC)c(NC(=O)Nc2cc(C)on2)cc1Cl [PNU-120596]		did not show potentiation	
O=c1[nH]c2ccccc2n1C1CCN(CCCC(c2ccc(F)cc2)c2ccc(F)cc2)CC1 [Pimozide]	much greater potentiation effect on the channel current than THC		
CCCCCc1cc(O)c2c(c1)OC(C)(C)[C@@H]1CCC(C)=C[C@@H]21 [THC, Δ^9-tetrahydrocannabinol]			little effect

Source: publication PMC4414066 (Journal of medicinal chemistry, 2015)
